Columns and labels:
Format in all cases: cell-based
L-type calcium channels = assay: FLIPR L-type Calcium Channel Assay (calcium influx in HL-1 cells after KCl); conditions: read-out: L-type Ca2+ IC50
Method: HL-1 cells expressing endogenous L-type calcium channels are removed from culture flasks using trypsin, plated on fibronectin/gelatin-coated, clear-bottomed, black-walled 96-well microplates in Claycomb media (JRH Biosciences #51800) containing 10% fetal bovine serum, 4 mM L-glutamine, and 10 μM norepinephrine, and grown to confluency overnight. The next day, growth medium is aspirated from confluent cell monolayers and replaced with 100 μL per well Tyrode's solution (in mM: 130 NaCl, 4 KCl, 1.8 CaCl2, 1.0 MgCl2, 20 HEPES, 10 glucose, pH 7.35) and 50 μL per well FLIPR Calcium Assay kit, component A (#R-8033, Molecular Devices Corporation) and incubated for 60 min. in a 5% CO2 37° C. incubator. 50 μL per well test compounds are added to the plates and further incubated for 15 min. in a 5% CO2 37° C. incubator. All final solutions contain the anion exchange inhibitor, probenecid (2.5 mM). The 96-well plates are then placed in the center position of the FLIPR 1 (Fluorometric Imaging Plate Reader, Molecular Devices Corporation). Cell monolayers in each well are simultaneously illuminated at 488 nm with an Argon ion laser, and fluorescence emission is monitored using a 510-570 nm bandpass filter and a cooled CCD camera. To depolarize the plasma membrane and activate L-type calcium channels, 50 μL per well of 20 mM KCl (final concentration) are dispensed simultaneously to all 96 wells using the FLIPR's automatic 96-well pipettor. Fluorescence measurements are captured for 5 min. following KCl addition. Calcium influx, expressed as % control, is calculated for each concentration of test compound and concentration-response curves and IC50 values are generated using GraphPad Prism 4.0.

Kv1.5 = molecular target: T1, Kv1.5 (Homo sapiens, UniProt P22460); assay: Kv1.5 Patch Clamp EP (whole cell patch clamp; single point at 1 μM and IC50); conditions: for inhibition at 1 µM: single point at 1.0 μM, Kv1.5 stably over expressed in HEK or LTK- cells; for IC50: concentration response
T1 construct: expressed in transfected cells; host or cells: HEK or LTK- cells
Method: The external solution is standard Tyrodes solution. […] Inhibition was measured at the end of the 1 second pulses and expressed relative to controls. Initial Kv1.5 inhibition is estimated by single point determinations done at 1 μM.

HERG = molecular target: T2, HERG (Homo sapiens, UniProt Q12809); assay: HERG Patch Clamp EP (whole cell patch clamp, tail currents; single point at 10 μM and IC50); conditions: for inhibition at 10 µM: human, HEK cells stably overexpressing HERG, single point at 10 μM, HERG in HEK cells, read-out: HERG % Inhib. @ 10 μM; for IC50: concentration response
T2 construct: expressed in transfected cells; host or cells: HEK cells
From the text: The external solution is standard Tyrodes solution.

T2 sequence (Q12809 whole entry): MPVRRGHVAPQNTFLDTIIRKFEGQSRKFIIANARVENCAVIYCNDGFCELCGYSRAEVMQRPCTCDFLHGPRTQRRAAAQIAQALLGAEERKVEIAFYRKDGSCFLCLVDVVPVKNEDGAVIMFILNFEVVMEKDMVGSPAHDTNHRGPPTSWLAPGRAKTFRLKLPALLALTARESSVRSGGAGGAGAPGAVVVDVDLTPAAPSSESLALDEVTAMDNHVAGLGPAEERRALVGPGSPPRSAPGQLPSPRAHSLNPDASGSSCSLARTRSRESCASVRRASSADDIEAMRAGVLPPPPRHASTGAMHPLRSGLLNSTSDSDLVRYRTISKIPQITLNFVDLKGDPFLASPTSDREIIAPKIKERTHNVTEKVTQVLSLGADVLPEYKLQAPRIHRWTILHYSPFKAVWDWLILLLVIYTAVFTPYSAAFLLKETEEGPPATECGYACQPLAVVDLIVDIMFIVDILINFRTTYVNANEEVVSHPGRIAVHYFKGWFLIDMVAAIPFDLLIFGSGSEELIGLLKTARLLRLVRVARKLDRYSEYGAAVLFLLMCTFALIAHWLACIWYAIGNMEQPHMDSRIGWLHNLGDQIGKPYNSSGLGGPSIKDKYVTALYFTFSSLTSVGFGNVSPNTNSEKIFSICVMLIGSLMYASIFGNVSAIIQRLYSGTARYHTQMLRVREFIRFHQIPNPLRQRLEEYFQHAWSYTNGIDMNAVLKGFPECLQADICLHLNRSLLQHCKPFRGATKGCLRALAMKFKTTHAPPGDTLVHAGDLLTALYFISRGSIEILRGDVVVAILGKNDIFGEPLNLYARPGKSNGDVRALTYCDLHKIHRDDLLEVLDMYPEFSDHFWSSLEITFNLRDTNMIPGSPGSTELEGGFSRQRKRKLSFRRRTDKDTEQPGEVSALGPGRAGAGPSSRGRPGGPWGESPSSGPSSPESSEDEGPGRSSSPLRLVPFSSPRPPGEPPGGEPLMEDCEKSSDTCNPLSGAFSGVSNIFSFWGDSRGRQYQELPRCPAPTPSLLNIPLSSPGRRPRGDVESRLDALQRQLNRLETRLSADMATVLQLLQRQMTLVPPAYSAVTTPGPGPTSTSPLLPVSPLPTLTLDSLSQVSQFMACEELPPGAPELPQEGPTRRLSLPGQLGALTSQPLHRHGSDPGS
T1 sequence (P22460 whole entry): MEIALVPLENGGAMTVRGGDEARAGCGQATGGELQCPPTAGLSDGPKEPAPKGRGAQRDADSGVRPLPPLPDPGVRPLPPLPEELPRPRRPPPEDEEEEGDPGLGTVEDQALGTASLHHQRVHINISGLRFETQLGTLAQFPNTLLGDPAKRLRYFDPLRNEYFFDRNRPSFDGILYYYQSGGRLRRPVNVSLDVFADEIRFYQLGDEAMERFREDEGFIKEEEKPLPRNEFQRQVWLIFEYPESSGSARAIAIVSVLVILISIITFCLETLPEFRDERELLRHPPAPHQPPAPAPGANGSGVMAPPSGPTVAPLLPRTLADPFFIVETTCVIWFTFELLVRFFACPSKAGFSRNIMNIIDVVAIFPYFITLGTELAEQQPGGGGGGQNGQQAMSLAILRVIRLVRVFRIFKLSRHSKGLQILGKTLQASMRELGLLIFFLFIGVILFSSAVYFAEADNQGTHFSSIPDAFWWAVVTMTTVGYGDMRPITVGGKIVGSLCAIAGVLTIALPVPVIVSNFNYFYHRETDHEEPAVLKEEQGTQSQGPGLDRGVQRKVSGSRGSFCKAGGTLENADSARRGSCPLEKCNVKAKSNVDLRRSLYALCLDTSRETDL

| SMILES | IC50 (L-type calcium channels) [µM] | inhibition at 1 µM (Kv1.5) [%] | IC50 (Kv1.5) [µM] | inhibition at 10 µM (HERG) [%] | IC50 (HERG) [µM] |
| --- | --- | --- | --- | --- | --- |
| CC(=O)N1CCC2(CC1)C(=O)N(CCCc1ccccc1)C(c1ccc(C3CC3)cc1)N2C (stereo not drawn) [Compound 44, 8-Acetyl-2-(4-cyclopropylphenyl)-3-(3-phenylpropyl)-1-methyl-1,3,8-triazaspiro-[4.5]decan-4-one] | 15 | 73 |  | 61 |  |
| CN1C(c2ccc(C3CC3)cc2)N(CCCc2ccccc2)C(=O)C12CCN(C(=O)C1CC1)CC2 (stereo not drawn) [Compound 45, 8-Cyclopropanecarbonyl-2-(4-cyclopropylphenyl)-3-(3-phenylpropyl)-1-methyl-1,3,8-triazaspiro-[4.5]decan-4-one] | 6.2 | 77 | 0.287 | 87 | 3.3 |
| COc1ccc(C2N(CCCc3ccccc3)C(=O)C3(CCN(C(=O)C4CC4)CC3)N2C)cc1 (stereo not drawn) [Compound 46, 8-Cyclopropanecarbonyl-2-(4-methoxyphenyl)-3-(3-phenylpropyl)-1-methyl-1,3,8-triazaspiro-[4.5]decan-4-one] | 17 | 68 |  | 32 |  |
| CN1C(c2ccc(C3CC3)cc2)N(CCCc2ccccc2)C(=O)C12CCN(C(N)=O)CC2 (stereo not drawn) [Compound 49, 2-(4-Cyclopropylphenyl)-1-methyl-4-oxo-3-(3-phenylpropyl)-1,3,8-triazaspiro-[4.5]decane-8-carboxylic acid amide] | 14 | 86 | 0.321 | 67 | 7.7 |
| CN1C(c2ccc(C(C)(C)C)cc2)N(CCCc2ccccc2)C(=O)C12CCN(C(N)=O)CC2 (stereo not drawn) [Compound 50, 2-(4-tert-Butylphenyl)-1-methyl-4-oxo-3-(3-phenylpropyl)-1,3,8-triazaspiro-[4.5]decane-8-carboxylic acid amide] | 16 | 72 |  | 37 |  |
| CC(C)NC(=O)N1CCC2(CC1)C(=O)N(CCCc1ccccc1)C(c1ccc(C3CC3)cc1)N2C (stereo not drawn) [Compound 52, 2-(4-Cyclopropylphenyl)-1-methyl-4-oxo-3-(3-phenylpropyl)-1,3,8-triazaspiro-[4.5]decane-8-carboxylic acid isopropyl amide] | 12 | 89 |  | 79 |  |
| CN(C)C(=O)N1CCC2(CC1)C(=O)N(CCCc1ccccc1)C(c1ccc(C3CC3)cc1)N2C (stereo not drawn) [Compound 53, 2-(4-Cyclopropylphenyl)-1-methyl-4-oxo-3-(3-phenylpropyl)-1,3,8-triazaspiro-[4.5]decane-8-carboxylic acid dimethylamide] | 4.5 | 93 |  | 77 |  |
| CN1C(c2ccc(C3CC3)cc2)N(CCCc2ccccc2)C(=O)C12CCN(S(C)(=O)=O)CC2 (stereo not drawn) [Compound 54, 2-(4-Cyclopropylphenyl)-8-methanesulfonyl-1-methyl-3-(3-phenylpropyl)-1,3,8-triazaspiro-[4.5]decan-4-one] | 18 | 88 | 0.266 | 53 | 4.9 |
| COc1ccc(CCN2C(=O)C3(CCN(CC(N)=O)CC3)N(C)C2c2ccc(C3CC3)cc2)cc1 (stereo not drawn) [Compound 55, 2-{2-(4-Cyclopropylphenyl)-3-[2-(4-methoxyphenyl)ethyl]-1-methyl-4-oxo-1,3,8-triaza-spiro[4.5]dec-8-yl}acetamide] | 8 | 64 |  | 71 |  |
| COc1ccc(CCN2C(=O)C3(CCN(C(N)=O)CC3)N(C)C2Cc2ccc(C(C)(C)C)cc2)cc1 (stereo not drawn) [Compound 58, 2-(4-tert-Butylbenzyl)-3-[2-(4-methoxyphenyl)ethyl]-1-methyl-4-oxo-1,3,8-triazaspiro[4.5]decane-8-carboxylic acid amide] | 12 | 92 | 0.25 | 68 | 4.4 |

Second part, led by results:

| IC50 (L-type calcium channels) [µM] | inhibition at 1 µM (Kv1.5) [%] | IC50 (Kv1.5) [µM] | SMILES | inhibition at 10 µM (HERG) [%] | IC50 (HERG) [µM] |
| --- | --- | --- | --- | --- | --- |
| 7.8 | 93 | 0.257 | COc1ccc(CCN2C(=O)C3(CCN(C(=O)OC(C)(C)C)CC3)NC2c2ccc(OC(F)F)cc2)cc1 (stereo not drawn) [Compound 62, 2-(4-Difluoromethoxyphenyl)-3-[2-(4-methoxyphenyl)ethyl]-4-oxo-1,3,8-triaza-spiro[4.5]decane-8-carboxylic acid tert-butyl ester] | 62 | 4.6 |
| 3 | 73 |  | COc1ccc(CCN2C(=O)C3(CCN(S(C)(=O)=O)CC3)NC2c2ccc(C(C)(C)C)cc2)cc1 (stereo not drawn) [Compound 63, 2-(4-tert-Butylphenyl)-8-methanesulfonyl-3-[2-(4-methoxyphenyl)ethyl]-1,3,8-triaza-spiro[4.5]decan-4-one] | 40 |  |
| 10 | 91 |  | COc1ccc(CCN2C(=O)C3(CCN(C(=NC#N)Oc4ccccc4)CC3)N(C)C2c2ccc(OC)cc2)cc1 (stereo not drawn) [Compound 67, 8-(phenyl-N-cyano-1-carbimidate)-2-(4-methoxyphenyl)-3-[2-(4-methoxyphenyl)ethyl]-1-methyl-1,3,8-triaza-spiro[4.5]decan-4-one] | 80 |  |
| 19 | 94 |  | COC(=O)N1CCC2(CC1)NC(c1ccc(C3CC3)cc1)N(CCc1ccc(OC)cc1)C2=O (stereo not drawn) [Compound 75, Methyl 2-(4-cyclopropylphenyl)-3-[2-(4-methoxyphenyl)ethyl]-4-oxo-1,3,8-triazaspiro[4.5]decane-8-carboxylate] | 2 |  |
| 19 | 74 |  | COc1ccc(CCN2C(=O)C3(CCN(C(=O)NN)CC3)N(C)C2c2ccc(C3CC3)cc2)cc1 (stereo not drawn) [Compound 80, 2-(4-cyclopropylphenyl)-3-[2-(4-methoxyphenyl)ethyl]-1-methyl-4-oxo-1,3,8-triazaspiro[4.5]decane-8-carbohydrazide] | 24 |  |
| 9 | 80 |  | CCCCC(=O)N1CCC2(CC1)C(=O)N(CCc1ccc(OC)cc1)C(c1ccc(OC(F)F)cc1)N2C (stereo not drawn) [Compound 81, 2-[4-(difluoromethoxy)phenyl]-3-[2-(4-methoxyphenyl)ethyl]-1-methyl-8-pentanoyl-1,3,8-triazaspiro[4.5]decan-4-one] | 95 |  |
| 7 | 88 |  | COc1ccc(CCN2C(=O)C3(CCN(C(=O)C4CCCC4)CC3)N(C)C2c2ccc(OC(F)F)cc2)cc1 (stereo not drawn) [Compound 82, 8-(cyclopentylcarbonyl)-2-[4-(difluoromethoxy)phenyl]-3-[2-(4-methoxyphenyl)ethyl]-1-methyl-1,3,8-triazaspiro[4.5]decan-4-one] | 90 |  |
| 6.8 | 93 |  | COc1ccc(CCN2C(=O)C3(CCN(C(=O)C4CC4)CC3)N(C)C2c2ccc(CC(C)C)cc2)cc1 (stereo not drawn) [Compound 83, 8-(cyclopropylcarbonyl)-2-(4-isobutylphenyl)-3-[2-(4-methoxyphenyl)ethyl]-1-methyl-1,3,8-triazaspiro[4.5]decan-4-one] | 84 |  |
| 6.7 | 85 |  | COc1ccc(CCN2C(=O)C3(CCN(C(=O)OC(C)(C)C)CC3)N(C)C2c2ccc(CC(C)C)cc2)cc1 (stereo not drawn) [Compound 85, tert-butyl 2-(4-isobutylphenyl)-3-[2-(4-methoxyphenyl)ethyl]-1-methyl-4-oxo-1,3,8-triazaspiro[4.5]decane-8-carboxylate] | 3 |  |
| 12 | 94 | 0.273 | COc1ccc(CCN2C(=O)C3(CCN(CC(=O)N(C)C)CC3)N(C)C2c2ccc(C3CC3)cc2)cc1 (stereo not drawn) [Compound 89, 2-{2-(4-cyclopropylphenyl)-3-[2-(4-methoxyphenyl)ethyl]-1-methyl-4-oxo-1,3,8-triazaspiro[4.5]dec-8-yl}-N,N-dimethylacetamide] | 43 | 12 |
| 13 | 87 |  | COc1ccc(CCN2C(=O)C3(CCN(C(=O)n4ccnc4)CC3)N(C)C2c2ccc(C3CC3)cc2)cc1 (stereo not drawn) [Compound 91, 2-(4-cyclopropylphenyl)-8-(1H-imidazol-1-ylcarbonyl) —3-[2-(4-methoxyphenyl)ethyl]-1-methyl-1,3,8-triazaspiro[4.5]decan-4-one] | 72 |  |

— US20070299072A1, “KV1.5 POTASSIUM CHANNEL INHIBITORS” (Wyeth, priority 2006, published 2007)
